Experiment [1] addresses PHD2 enzyme (residues 181-417) (Homo sapiens (Human), UniProt Q9GZT9). Put plainly: Inhibition of PHD enzyme (LC/MS peptide hydroxylation assay). The class given is biochemical. Particulars: PHD2 (residues 181-417) 5 nM, 60 min pre-incubation; -log(IC50), IC50 molar. The essentials: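 Hydroxylated peptide quantified by LC/MS after 60 min turnover of 1 uM biotinylated peptide with 2 uM 2-oxoglutarate and 1 mM ascorbate, stopped by excess tight-binding inhibitor. Beforehand, 5 nM enzyme and compound were preincubated 60 min at RT, pH 7.3 HEPES/KCl/TCEP/FeCl2/BSA buffer. Values as pIC50 (−log molar IC50).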

For experiment [2], the system named is HIF1a protein in H9c2 rat cardiomyocytes. Nature of the experiment: Cell-based HIF-alpha stabilization assay (inhibition of PHD in cells). Conditions: Rattus norvegicus, H9c2, 24 h, 24 hrs compound incubation, HIF1a protein by ELISA, read-out: Inhibition of PHD in cells (pEC50) (converted). The essentials: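 HIF1a stabilization was measured by ELISA on lysates of H9c2 rat cardiomyocytes after 24 h exposure to 11 serial compound concentrations, expressed relative to the desferrioxamine maximum. Curve fits gave EC50. EC50pos denotes the concentration producing half the desferrioxamine maximal response.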
A general note: In an ELISA, binding on a coated surface is turned into a signal by an enzyme label.

Chain of PHD2 enzyme (residues 181-417) (Q9GZT9 181-417): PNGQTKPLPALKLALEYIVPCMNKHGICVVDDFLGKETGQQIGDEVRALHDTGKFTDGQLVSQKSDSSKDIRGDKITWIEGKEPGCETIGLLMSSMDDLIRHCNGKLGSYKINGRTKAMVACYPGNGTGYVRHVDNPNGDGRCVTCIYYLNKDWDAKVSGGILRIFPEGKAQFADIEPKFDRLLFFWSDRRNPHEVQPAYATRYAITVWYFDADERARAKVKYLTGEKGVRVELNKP

For `Cc1cc(C#N)ccc1-c1cnn(-c2ccc(C(=O)NCCCN(C)C)cn2)c1O` [Example 95, 6-(4-(4-cyano-2-methylphenyl)-5-hydroxy-1H-pyrazol-1-yl)-N-(3-(dimethylamino)propyl)nicotinamide], the “PHD Inhibition (pIC50)” value in experiment [1] was found to be 7.9. For the same compound, the EC50 in experiment [2] is 0.0832 µM.
With `Cc1cc(C#N)ccc1-c1cnn(-c2ccc(C(=O)NCC3CCN(C)C3)cn2)c1O` (centres unmarked) [Example 96, 6-(4-(4-cyano-2-methylphenyl)-5-hydroxy-1H-pyrazol-1-yl)-N-((1-methylpyrrolidin-3-yl)methyl)nicotinamide], in experiment [1], the “PHD Inhibition (pIC50)” value was found to be 8. In addition, the EC50 in experiment [2] is 0.0562 µM.
For the compound `Cc1cc(C#N)ccc1-c1cnn(-c2ccc(C(=O)NCCCN3CCCCC3C)cn2)c1O` (centres unmarked) [Example 97, 6-(4-(4-cyano-2-methylphenyl)-5-hydroxy-1H-pyrazol-1-yl)-N-(3-(2-methylpiperidin-1-yl)propyl)nicotinamide], the “PHD Inhibition (pIC50)” value in experiment [1] came to 8. In addition, the EC50 in experiment [2] was 0.0562 µM.
Take `CCN1CCC(NC(=O)c2ccc(-n3ncc(-c4ccc(C#N)cc4C)c3O)nc2)CC1` [Example 98, 6-(4-(4-cyano-2-methylphenyl)-5-hydroxy-1H-pyrazol-1-yl)-N-(1-ethylpiperidin-4-yl)nicotinamide]: the “PHD Inhibition (pIC50)” value in experiment [1] is 7.9. Besides, in experiment [2], the EC50 was 0.12 µM.
`Cc1cc(C#N)ccc1-c1cnn(-c2ccc(C(=O)NCCCN3CCCCC3)cn2)c1O` [Example 99, 6-(4-(4-cyano-2-methylphenyl)-5-hydroxy-1H-pyrazol-1-yl)-N-(3-(piperidin-1-yl)propyl)nicotinamide]: the “PHD Inhibition (pIC50)” value in experiment [1] turned out to be 7.9. Further, in experiment [2], the EC50 is 0.0537 µM.
On the same counts, the results for `Cc1cc(C#N)ccc1-c1cnn(-c2ccc(C(=O)NC3CCN(C)CC3)cn2)c1O` [Example 100, 6-(4-(4-cyano-2-methylphenyl)-5-hydroxy-1H-pyrazol-1-yl)-N-(1-methylpiperidin-4-yl)nicotinamide] are 8.1 and 0.0759 µM.
For the compound `Cc1cc(C#N)ccc1-c1cnn(-c2ccc(C(=O)NCC3CN(C)CCO3)cn2)c1O` (centres unmarked) [Example 101, 6-(4-(4-cyano-2-methylphenyl)-5-hydroxy-1H-pyrazol-1-yl)-N-((4-methylmorpholin-2-yl)methyl)nicotinamide], the “PHD Inhibition (pIC50)” value in experiment [1] is reported as 8.1. Moreover, the EC50 in experiment [2] is 0.158 µM.
`Cc1cc(C#N)ccc1-c1cnn(-c2ccc(C(=O)NCCC3CCCN3C)cn2)c1O` (centres unmarked) [Example 102, 6-(4-(4-cyano-2-methylphenyl)-5-hydroxy-1H-pyrazol-1-yl)-N-(2-(1-methylpyrrolidin-2-yl)ethyl)nicotinamide]: the “PHD Inhibition (pIC50)” value in experiment [1] worked out at 7.9. Besides, the EC50 in experiment [2] was 0.0589 µM.
In the same order, the values of `COC[C@H]1CCC[C@H]1NC(=O)c1ccc(-n2ncc(-c3ccc(C#N)cc3C)c2O)nc1` [Example 103, 6-(4-(4-cyano-2-methylphenyl)-5-hydroxy-1H-pyrazol-1-yl)-N-((1R,2S)-2-(methoxymethyl)cyclopentyl)nicotinamide] are 8.1 and 0.178 µM.
On the same counts, the results for `Cc1cc(C#N)ccc1-c1cnn(-c2ccc(C(=O)NCCCN3CCOCC3)cn2)c1O` [Example 104, 6-(4-(4-cyano-2-methylphenyl)-5-hydroxy-1H-pyrazol-1-yl)-N-(3-morpholinopropyl)nicotinamide] are 8.2 and 0.0955 µM.
On the same counts, the results for `Cc1cc(C#N)ccc1-c1cnn(-c2ccc(C(=O)NCCCN3CCCC3)cn2)c1O` [Example 105, 6-(4-(4-cyano-2-methylphenyl)-5-hydroxy-1H-pyrazol-1-yl)-N-(3-(pyrrolidin-1-yl)propyl)nicotinamide] are 8 and 0.0617 µM.
As to `Cc1cc(C#N)ccc1-c1cnn(-c2ccc(C(=O)NCCCn3ccnc3)cn2)c1O` [Example 106, N-(3-(1H-imidazol-1-yl)propyl)-6-(4-(4-cyano-2-methylphenyl)-5-hydroxy-1H-pyrazol-1-yl)nicotinamide], in experiment [1], the “PHD Inhibition (pIC50)” value is reported as 8. Besides, the EC50 in experiment [2] was 0.355 µM.
Regarding `CNC(=O)c1ccc(-n2ncc(-c3ccc(C#N)cc3C)c2O)nc1` [Example 107, 6-(4-(4-cyano-2-methylphenyl)-5-hydroxy-1H-pyrazol-1-yl)-N-methylnicotinamide], the “PHD Inhibition (pIC50)” value in experiment [1] was 8.4. In experiment [2], the EC50 was 0.129 µM.
`CCNC(=O)c1ccc(-n2ncc(-c3ccc(C#N)cc3C)c2O)nc1` [Example 108]: the “PHD Inhibition (pIC50)” value in experiment [1] stood at 8.3. Besides, the EC50 in experiment [2] is 0.11 µM.
Turning to `CN(C)CC(C)(C)NC(=O)c1ccc(-n2ncc(-c3ccc(C#N)cc3)c2O)nc1` [Example 109, 6-(4-(4-cyanophenyl)-5-hydroxy-1H-pyrazol-1-yl)-N-(1-(dimethylamino)-2-methylpropan-2-yl)nicotinamide], the “PHD Inhibition (pIC50)” value in experiment [1] was 7.7. The EC50 in experiment [2] is 1.2 µM.
On to `COC[C@H]1CCC[C@H]1NC(=O)c1ccc(-n2ncc(-c3ccc(C#N)cc3)c2O)nc1` [Example 110, 6-(4-(4-cyanophenyl)-5-hydroxy-1H-pyrazol-1-yl)-N-((1R,2S)-2-(methoxymethyl)cyclopentyl)nicotinamide], for which the “PHD Inhibition (pIC50)” value in experiment [1] came to 8.1. The EC50 in experiment [2] is 1.23 µM.
In the same order, the values of `CN1CCOC(CNC(=O)c2ccc(-n3ncc(-c4ccc(C#N)cc4)c3O)nc2)C1` (centres unmarked) [Example 111, 6-(4-(4-cyanophenyl)-5-hydroxy-1H-pyrazol-1-yl)-N-((4-methylmorpholin-2-yl)methyl)nicotinamide] are 7.8 and 2.14 µM.
For the compound `CCOCCNC(=O)c1ccc(-n2ncc(-c3ccc(C#N)cc3)c2O)nc1` [Example 112, 6-(4-(4-cyanophenyl)-5-hydroxy-1H-pyrazol-1-yl)-N-(2-ethoxyethyl)nicotinamide], the “PHD Inhibition (pIC50)” value in experiment [1] is 7.32. The EC50 in experiment [2] is 1.38 µM.
As to `CC(NC(=O)c1ccc(-n2ncc(-c3ccc(C#N)cc3)c2O)nc1)C1CCCO1` (centres unmarked) [Example 113, 6-(4-(4-cyanophenyl)-5-hydroxy-1H-pyrazol-1-yl)-N-(1-(tetrahydrofuran-2-yl)ethyl)nicotinamide], the “PHD Inhibition (pIC50)” value in experiment [1] stood at 7.22. The EC50 in experiment [2] is 1.38 µM.
In the same order, the values of `COCCC(C)NC(=O)c1ccc(-n2ncc(-c3ccnc(OC)c3)c2O)nc1` (centres unmarked) [Example 114, 6-(5-hydroxy-4-(2-methoxypyridin-4-yl)-1H-pyrazol-1-yl)-N-(4-methoxybutan-2-yl)nicotinamide] are 6.55 and 0.257 µM.
Regarding `CC(C)N1CCC(NC(=O)c2ccc(-n3ncc(-c4ccc(C#N)cc4)c3O)nc2)CC1` [Example 115, 6-(4-(4-cyanophenyl)-5-hydroxy-1H-pyrazol-1-yl)-N-(1-isopropylpiperidin-4-yl)nicotinamide], the “PHD Inhibition (pIC50)” value in experiment [1] is 6.91. Also, the EC50 in experiment [2] was 1.82 µM.
On to `N#Cc1ccc(-c2cnn(-c3ccc(C(=O)NCCCc4nccs4)cn3)c2O)cc1` [Example 116, 6-(4-(4-cyanophenyl)-5-hydroxy-1H-pyrazol-1-yl)-N-(3-(thiazol-2-yl)propyl)nicotinamide], for which the “PHD Inhibition (pIC50)” value in experiment [1] came to 7.42. Moreover, the EC50 in experiment [2] is 0.741 µM.

The values are drawn from patent publication US10407409B2, “6-(5-hydroxy-1H-pyrazol-1-yl)nicotinamide inhibitors of PHD” (Takeda Pharmaceutical Company Limited, priority 2013, dated 2019).
